pIC50: −log10 of the molar value.
Legend:
Assay in all cases: Ba/F3 cell viability, Cell Titer Glo
EGFR E709K = EGFR E709K (Homo sapiens, UniProt P00533, E709K); settings: read-out: IC50 Values; Ba/F3 cells expressing EGFR E709K, 72 hours
Description: (§1) Cell viability was determined by the Cell Titer Glo assay.
(§2) Briefly, stable Ba/F3 cell lines were generated by retroviral transduction of Ba/F3 cell line for 12 hours. […] Three days after transduction, 2 μg/ml puromycin (Invitrogen) was added to the RPMI media. Cell lines were then grown in the absence of IL-3 for two weeks and cell viability was assessed every three days using the Cell Titer Glo assay (Progema).
(§3) Briefly, 2000-3000 cells per well were plated in 384-well plates (Greiner Bio-One) in technical triplicate. Cells were treated with seven different concentrations of tyrosine kinase inhibitors or vehicle alone at a final volume of 40 μL per well. After 3 days, 11 μL of Cell Titer Glo was added to each well. Plates were shaken for 15 minutes, and bioluminescence was determined using a FLUOstar OPTIMA multi-mode micro-plate reader (BMG LABTECH). Bioluminescence values were normalized to DMSO treated cells, and normalized values were plotted in GraphPad Prism using non-linear regression fit to normalized data with a variable slope.

EGFR L833F = EGFR L833F (Homo sapiens, UniProt P00533, L833F); settings: read-out: IC50 Values; Ba/F3 cells expressing EGFR L833F, 72 hours
Description: as §1, §2, §3

EGFR R776H = EGFR R776H (Homo sapiens, UniProt P00533, R776H); settings: read-out: IC50 Values; Ba/F3 cells expressing EGFR R776H, 72 hours
Description: as §1, §2, §3

EGFR L718Q T790M = EGFR L718Q T790M (Homo sapiens, UniProt P00533, L718Q/T790M); settings: read-out: IC50 Values; Ba/F3 cells expressing EGFR L718Q T790M, 72 hours
Description: as §1, §2, §3

EGFR G719A T790M = EGFR G719A T790M (Homo sapiens, UniProt P00533, G719A/T790M); settings: read-out: IC50 Values; Ba/F3 cells expressing EGFR G719A T790M, 72 hours
Description: as §1, §3

EGFR T725M = EGFR T725M (Homo sapiens, UniProt P00533, T725M); settings: read-out: IC50 Values; Ba/F3 cells expressing EGFR T725M, 72 hours
Description: as §1, §2, §3

EGFR L858R T790M L792H = EGFR L858R T790M L792H (Homo sapiens, UniProt P00533, L792H/L858R/T790M); settings: read-out: IC50 Values; Ba/F3 cells expressing EGFR L858R T790M L792H, 72 hours
Description: as §1, §2, §3

EGFR Ex19del/C797S = EGFR Ex19del/C797S (Homo sapiens, UniProt P00533, C797S/DEL746-750); settings: read-out: IC50 Values; Ba/F3 cells expressing EGFR Ex19del/C797S, 72 hours
Description: The transforming capability of the mutations was then evaluated by sustained cell viability following IL-3 deprivation. Activating EGFR mutant Ba/F3 cells were then screened against EGFR TKIs. Cell viability was determined by the Cell Titer Glo assay.
Ba/F3 cells expressing acquired atypical mutations spanning exons 18-21 were treated with inhibitors for 72 hours. […] Briefly, stable Ba/F3 cell lines were generated by retroviral transduction of Ba/F3 cell line for 12 hours. […] Three days after transduction, 2 μg/ml puromycin (Invitrogen) was added to the RPMI media. Cell lines were then grown in the absence of IL-3 for two weeks and cell viability was assessed every three days using the Cell Titer Glo assay (Progema).
as §3

EGFR A767insASV = EGFR A767insASV (Homo sapiens, UniProt P00533, DUP767-769); settings: read-out: IC50 Values; Ba/F3 cells expressing EGFR A767insASV, 72 hours
Description: as §1, §2, §3

EGFR T725M, sequence (P00533 25-1210 T725M): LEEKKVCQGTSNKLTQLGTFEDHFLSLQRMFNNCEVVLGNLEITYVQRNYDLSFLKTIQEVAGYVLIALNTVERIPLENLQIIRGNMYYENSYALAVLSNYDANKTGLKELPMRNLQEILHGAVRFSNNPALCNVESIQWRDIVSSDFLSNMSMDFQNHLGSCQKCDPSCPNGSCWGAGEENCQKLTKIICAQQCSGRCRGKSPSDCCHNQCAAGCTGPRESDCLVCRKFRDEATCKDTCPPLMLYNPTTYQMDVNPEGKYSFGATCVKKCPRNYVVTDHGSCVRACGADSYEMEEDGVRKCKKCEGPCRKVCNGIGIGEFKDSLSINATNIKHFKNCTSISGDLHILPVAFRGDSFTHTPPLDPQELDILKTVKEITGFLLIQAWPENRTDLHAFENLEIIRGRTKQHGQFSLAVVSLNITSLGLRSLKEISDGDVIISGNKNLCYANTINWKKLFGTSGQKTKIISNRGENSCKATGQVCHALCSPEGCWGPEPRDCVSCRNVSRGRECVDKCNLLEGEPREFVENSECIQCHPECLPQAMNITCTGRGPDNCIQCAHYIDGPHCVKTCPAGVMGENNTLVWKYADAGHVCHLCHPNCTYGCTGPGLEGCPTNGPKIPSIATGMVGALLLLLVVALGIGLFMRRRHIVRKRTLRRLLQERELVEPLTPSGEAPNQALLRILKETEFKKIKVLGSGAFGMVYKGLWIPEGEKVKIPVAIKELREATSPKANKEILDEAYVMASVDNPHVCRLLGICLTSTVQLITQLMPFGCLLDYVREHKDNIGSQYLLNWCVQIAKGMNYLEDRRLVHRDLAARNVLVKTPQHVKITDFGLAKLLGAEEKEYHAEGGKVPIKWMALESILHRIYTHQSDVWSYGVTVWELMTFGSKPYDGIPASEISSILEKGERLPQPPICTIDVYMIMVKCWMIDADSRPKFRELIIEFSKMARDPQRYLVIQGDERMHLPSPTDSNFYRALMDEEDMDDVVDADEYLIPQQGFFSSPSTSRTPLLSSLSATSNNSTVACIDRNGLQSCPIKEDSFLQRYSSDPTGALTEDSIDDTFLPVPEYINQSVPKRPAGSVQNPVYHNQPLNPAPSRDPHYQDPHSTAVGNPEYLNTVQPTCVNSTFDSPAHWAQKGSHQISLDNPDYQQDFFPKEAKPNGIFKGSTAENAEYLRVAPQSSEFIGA
EGFR E709K, sequence (P00533 25-1210 E709K): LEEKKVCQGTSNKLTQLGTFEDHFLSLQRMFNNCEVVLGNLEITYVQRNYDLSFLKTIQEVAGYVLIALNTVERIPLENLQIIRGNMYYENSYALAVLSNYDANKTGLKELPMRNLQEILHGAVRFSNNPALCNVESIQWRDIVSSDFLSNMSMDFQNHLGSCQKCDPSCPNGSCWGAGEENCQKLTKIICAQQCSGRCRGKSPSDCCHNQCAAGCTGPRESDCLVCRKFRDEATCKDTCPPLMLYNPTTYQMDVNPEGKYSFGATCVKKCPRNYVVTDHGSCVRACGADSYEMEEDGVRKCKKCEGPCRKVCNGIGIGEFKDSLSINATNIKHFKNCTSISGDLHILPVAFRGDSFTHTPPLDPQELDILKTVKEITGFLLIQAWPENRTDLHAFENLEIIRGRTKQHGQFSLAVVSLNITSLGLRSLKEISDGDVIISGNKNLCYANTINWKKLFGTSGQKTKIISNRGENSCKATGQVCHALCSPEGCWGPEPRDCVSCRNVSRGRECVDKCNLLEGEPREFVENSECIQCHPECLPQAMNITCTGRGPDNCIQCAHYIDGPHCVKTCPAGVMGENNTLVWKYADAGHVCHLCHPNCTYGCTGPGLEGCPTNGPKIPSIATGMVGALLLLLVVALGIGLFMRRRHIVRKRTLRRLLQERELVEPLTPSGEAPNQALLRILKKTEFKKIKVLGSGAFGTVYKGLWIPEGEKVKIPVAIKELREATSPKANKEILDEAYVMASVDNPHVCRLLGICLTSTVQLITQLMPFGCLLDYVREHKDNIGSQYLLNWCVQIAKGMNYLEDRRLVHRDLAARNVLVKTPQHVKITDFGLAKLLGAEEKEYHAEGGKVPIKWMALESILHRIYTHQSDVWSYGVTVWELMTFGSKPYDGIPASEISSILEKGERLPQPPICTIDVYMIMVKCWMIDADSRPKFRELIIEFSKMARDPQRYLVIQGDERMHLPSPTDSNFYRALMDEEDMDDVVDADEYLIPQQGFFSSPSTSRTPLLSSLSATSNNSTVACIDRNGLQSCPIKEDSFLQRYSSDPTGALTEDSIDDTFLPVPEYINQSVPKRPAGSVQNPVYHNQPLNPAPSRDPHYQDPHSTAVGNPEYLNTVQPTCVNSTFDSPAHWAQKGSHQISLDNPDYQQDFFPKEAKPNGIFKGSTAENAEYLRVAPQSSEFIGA
EGFR Ex19del/C797S, sequence (P00533 with tags, fused parts or gaps DEL746-750/C797S): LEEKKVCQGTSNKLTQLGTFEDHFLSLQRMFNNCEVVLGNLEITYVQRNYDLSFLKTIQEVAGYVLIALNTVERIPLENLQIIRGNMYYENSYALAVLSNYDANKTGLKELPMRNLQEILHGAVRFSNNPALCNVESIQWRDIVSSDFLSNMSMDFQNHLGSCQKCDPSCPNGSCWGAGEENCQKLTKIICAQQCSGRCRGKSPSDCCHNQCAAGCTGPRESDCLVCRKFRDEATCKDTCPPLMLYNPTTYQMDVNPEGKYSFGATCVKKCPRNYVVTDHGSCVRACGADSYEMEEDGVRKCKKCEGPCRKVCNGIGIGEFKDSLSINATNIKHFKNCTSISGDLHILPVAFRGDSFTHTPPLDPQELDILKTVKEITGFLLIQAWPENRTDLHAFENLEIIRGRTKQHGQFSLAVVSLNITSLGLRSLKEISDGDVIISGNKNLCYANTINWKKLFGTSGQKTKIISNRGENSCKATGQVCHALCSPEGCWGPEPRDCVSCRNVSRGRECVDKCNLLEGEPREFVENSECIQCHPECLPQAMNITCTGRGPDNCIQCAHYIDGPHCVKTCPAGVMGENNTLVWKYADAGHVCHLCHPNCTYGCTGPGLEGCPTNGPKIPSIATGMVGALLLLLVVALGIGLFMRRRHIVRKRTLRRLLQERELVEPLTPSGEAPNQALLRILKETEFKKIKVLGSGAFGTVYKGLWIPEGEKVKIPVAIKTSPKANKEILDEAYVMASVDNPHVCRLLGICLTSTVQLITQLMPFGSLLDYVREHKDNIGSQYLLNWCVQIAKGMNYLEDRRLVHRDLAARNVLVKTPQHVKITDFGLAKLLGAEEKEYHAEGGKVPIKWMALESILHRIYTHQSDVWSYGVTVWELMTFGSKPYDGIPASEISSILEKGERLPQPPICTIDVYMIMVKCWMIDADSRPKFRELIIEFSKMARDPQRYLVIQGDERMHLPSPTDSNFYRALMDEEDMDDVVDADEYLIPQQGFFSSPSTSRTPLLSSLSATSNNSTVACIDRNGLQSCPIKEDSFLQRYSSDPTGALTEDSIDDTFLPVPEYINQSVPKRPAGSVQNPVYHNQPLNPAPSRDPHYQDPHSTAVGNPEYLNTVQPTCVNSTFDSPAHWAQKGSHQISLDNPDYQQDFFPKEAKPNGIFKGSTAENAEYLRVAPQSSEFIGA
EGFR L718Q T790M, sequence (P00533 25-1210 L718Q/T790M): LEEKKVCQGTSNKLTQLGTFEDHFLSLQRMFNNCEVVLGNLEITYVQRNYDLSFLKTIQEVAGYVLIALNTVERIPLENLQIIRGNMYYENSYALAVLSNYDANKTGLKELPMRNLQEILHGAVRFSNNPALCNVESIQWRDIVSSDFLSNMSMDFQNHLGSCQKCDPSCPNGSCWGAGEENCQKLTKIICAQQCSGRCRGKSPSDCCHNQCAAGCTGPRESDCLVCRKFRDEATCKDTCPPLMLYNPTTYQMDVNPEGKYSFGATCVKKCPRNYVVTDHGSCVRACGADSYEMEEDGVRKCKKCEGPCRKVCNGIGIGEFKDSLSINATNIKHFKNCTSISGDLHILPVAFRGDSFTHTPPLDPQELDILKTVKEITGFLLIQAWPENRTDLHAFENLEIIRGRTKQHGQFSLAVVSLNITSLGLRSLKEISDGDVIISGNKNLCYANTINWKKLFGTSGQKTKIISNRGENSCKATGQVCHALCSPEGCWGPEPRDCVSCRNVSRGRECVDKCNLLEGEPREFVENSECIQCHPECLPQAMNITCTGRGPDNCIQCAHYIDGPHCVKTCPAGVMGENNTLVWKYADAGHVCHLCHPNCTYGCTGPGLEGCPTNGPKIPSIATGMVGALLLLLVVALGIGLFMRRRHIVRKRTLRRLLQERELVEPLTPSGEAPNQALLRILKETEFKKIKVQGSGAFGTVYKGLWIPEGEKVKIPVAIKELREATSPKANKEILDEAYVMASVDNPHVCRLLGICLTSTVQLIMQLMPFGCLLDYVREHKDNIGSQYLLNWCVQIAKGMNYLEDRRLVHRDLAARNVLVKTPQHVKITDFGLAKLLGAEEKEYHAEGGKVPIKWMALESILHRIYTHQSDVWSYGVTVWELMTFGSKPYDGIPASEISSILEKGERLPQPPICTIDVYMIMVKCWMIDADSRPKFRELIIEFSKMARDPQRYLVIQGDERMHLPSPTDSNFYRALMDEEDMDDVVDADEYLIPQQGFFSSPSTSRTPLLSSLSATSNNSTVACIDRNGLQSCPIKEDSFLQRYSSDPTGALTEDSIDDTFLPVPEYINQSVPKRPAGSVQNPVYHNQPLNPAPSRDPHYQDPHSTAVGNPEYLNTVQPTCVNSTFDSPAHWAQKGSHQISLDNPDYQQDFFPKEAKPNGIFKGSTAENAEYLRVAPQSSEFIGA

C=CC(=O)N1CC[C@@H](Oc2nc(Nc3ccc(N4CCC(N5CCN(C)CC5)CC4)cc3)c(C(N)=O)nc2CC)C1 [Naquotinib]
pIC50 (EGFR E709K): 6.45
pIC50 (EGFR L833F): 6.39
pIC50 (EGFR R776H): 7.16
pIC50 (EGFR L718Q T790M): 6.67
pIC50 (EGFR G719A T790M): 7.93
pIC50 (EGFR T725M): 7.11
pIC50 (EGFR L858R T790M L792H): 6.20
pIC50 (EGFR Ex19del/C797S): 5.81
pIC50 (EGFR A767insASV): 6.66
